Patent US20130217664A1, “NOVEL COMPOUNDS USEFUL FOR THE TREATMENT OF DEGENERATIVE AND INFLAMMATORY DISEASES” (priority 2012, published 2013)
pIC50: −log10 of the molar value.

How the values were obtained:
Format in all cases: biochemical
human JAK1 = target: T1, human JAK1 (Homo sapiens, UniProt P23458); experiment: JAK1 inhibition assay (polyGT substrate / Ulight-JAK1 peptide); settings: recombinant human JAK1 catalytic domain; polyGT or Ulight-JAK1 peptide assay
T1 construct: catalytic domain, amino acids 866-1154; catalog number PV4774; purchased Invitrogen PV4774
T1 sequence (P23458 866-1154): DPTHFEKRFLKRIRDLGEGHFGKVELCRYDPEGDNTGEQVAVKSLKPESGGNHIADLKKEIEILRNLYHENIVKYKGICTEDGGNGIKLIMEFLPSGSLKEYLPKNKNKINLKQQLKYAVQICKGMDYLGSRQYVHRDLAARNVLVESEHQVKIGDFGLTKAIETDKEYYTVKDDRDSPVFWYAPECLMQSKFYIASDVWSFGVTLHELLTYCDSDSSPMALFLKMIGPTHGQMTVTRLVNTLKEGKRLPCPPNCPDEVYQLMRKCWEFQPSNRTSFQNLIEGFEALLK
Protocol: 1.1 JAK1 Inhibition Assay
1.1.1 JAK1 Assay polyGT Substrate
After 45 min at 30° C., reactions are stopped by adding of 25 μL/well of 150 mM phosphoric acid. […] Plates are washed 6 times with 300 μL per well of a 75 mM phosphoric acid solution and the bottom of the plates is sealed. 40 μL/well of Microscint-20 is added, the top of the plates is sealed and readout is performed using the Topcount (Perkin Elmer). Kinase activity is calculated by subtracting counts per min (cpm) obtained in the presence of a positive control inhibitor (10 μM staurosporine) from cpm obtained in the presence of vehicle. The ability of a test compound to inhibit this activity is determined as:
(§1) Percentage inhibition=((cpm determined for sample with test compound present−cpm determined for sample with positive control inhibitor)divided by(cpm determined in the presence of vehicle−cpm determined for sample with positive control inhibitor))*100.
Dose dilution series are prepared for the compounds enabling the testing of dose-response effects in the JAK1 assay and the calculation of the IC50 for each compound.
1.1.2 JAK1 Ulight-JAK1 Peptide Assay
After 60 min at room temperature, reactions were stopped by adding 20 μL/well of detection mixture (1× detection buffer (Perkin Elmer, catalog number CR97-100C), 0.5 nM Europium-anti-phosphotyrosine (PT66) (Perkin Elmer, catalog number AD0068), 10 mM EDTA). […] Kinase activity was calculated by subtracting relative fluorescence units (RFU) obtained in the presence of a positive control inhibitor (10 μM staurosporine) from RFU obtained in the presence of vehicle. The ability of a test compound to inhibit this activity was determined as:
Percentage inhibition=((RFU determined for sample with test compound present−RFU determined for sample with positive control inhibitor)divided by(RFU determined in the presence of vehicle−RFU determined for sample with positive control inhibitor))*100.
Dose dilution series were prepared for the compounds enabling the testing of dose-response effects in the JAK1 assay and the calculation of the IC50 for the compound. Each compound is routinely tested at concentration of 20 μM followed by a 1/5 serial dilution, 10 points in a final concentration of 1% DMSO. […] The data are expressed as the average IC50 from the assays±standard error of the mean.

human JAK3 = target: T2, human JAK3 (Homo sapiens, UniProt P52333); experiment: JAK3 inhibition assay; settings: recombinant human JAK3 catalytic domain; polyGT substrate
T2 construct: catalytic domain (amino acids 781-1124; catalog number PV3855); purchased Invitrogen PV3855
T2 sequence (P52333 781-1124): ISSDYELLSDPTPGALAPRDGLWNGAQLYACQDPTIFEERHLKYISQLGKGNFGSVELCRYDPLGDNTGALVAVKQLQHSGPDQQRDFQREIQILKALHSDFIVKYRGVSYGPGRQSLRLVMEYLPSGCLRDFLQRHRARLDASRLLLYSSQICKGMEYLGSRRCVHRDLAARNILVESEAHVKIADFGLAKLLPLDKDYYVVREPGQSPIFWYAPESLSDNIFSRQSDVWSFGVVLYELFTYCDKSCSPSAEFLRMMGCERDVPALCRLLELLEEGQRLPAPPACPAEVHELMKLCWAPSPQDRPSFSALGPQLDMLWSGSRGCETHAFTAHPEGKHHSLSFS
Protocol: 1.3 JAK3 Inhibition Assay
0.5 ng JAK3 protein was incubated with 2.5 μg polyGT substrate (Sigma catalog number P0275) in kinase reaction buffer (25 mM Tris pH 7.5, 0.5 mM EGTA, 10 mM MgCl2, 2.5 mM DTT, 0.5 mM Na3VO4, 5 mM b-glycerolphosphate, 0.01% Triton X-100, 1 μM non-radioactive ATP, 0.25 μCi 33P-gamma-ATP (GE Healthcare, catalog number AH9968) final concentrations) with or without 5 μL containing test compound or vehicle (DMSO, 1% final concentration), in a total volume of 25 μL, in a polypropylene 96-well plate (Greiner, V-bottom). After 45 min at 30° C., reactions were stopped by adding 25 μL/well of 150 mM phosphoric acid. […] Plates were washed 6 times with 300 μL per well of a 75 mM phosphoric acid solution and the bottom of the plates was sealed. 40 μL/well of Microscint-20 was added, the top of the plates was sealed and readout was performed using the Topcount (Perkin Elmer). Kinase activity was calculated by subtracting counts per min (cpm) obtained in the presence of a positive control inhibitor (10 μM staurosporine) from cpm obtained in the presence of vehicle. The ability of a test compound to inhibit this activity was determined as:
as §1
Dose dilution series were prepared for the compounds enabling the testing of dose-response effects in the JAK3 assay and the calculation of the IC50 for each compound. Each compound was routinely tested at concentration of 20 μM followed by a 1/5 serial dilution, 10 points in a final concentration of 1% DMSO.

human TYK2 = target: T3, human TYK2 (Homo sapiens, UniProt P29597); experiment: TYK2 inhibition assay; settings: recombinant human TYK2 catalytic domain, polyGT substrate
T3 construct: catalytic domain (amino acids 871-1187; catalog number 08-147); purchased Carna Biosciences 08-147
T3 sequence (P29597 871-1187): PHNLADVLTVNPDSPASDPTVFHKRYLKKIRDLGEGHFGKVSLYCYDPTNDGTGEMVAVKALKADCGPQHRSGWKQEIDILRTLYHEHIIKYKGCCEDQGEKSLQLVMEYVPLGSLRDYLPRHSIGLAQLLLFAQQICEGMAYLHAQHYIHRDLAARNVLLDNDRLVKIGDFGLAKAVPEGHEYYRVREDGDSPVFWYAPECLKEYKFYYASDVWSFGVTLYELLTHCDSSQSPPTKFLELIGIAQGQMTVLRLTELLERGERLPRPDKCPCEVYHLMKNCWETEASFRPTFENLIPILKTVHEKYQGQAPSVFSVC
Protocol: 1.4 TYK2 Inhibition Assay
After 90 min at 30° C., reactions were stopped by adding 25 μL/well of 150 mM phosphoric acid. […] Plates were washed 6 times with 300 μL per well of a 75 mM phosphoric acid solution and the bottom of the plates was sealed. 40 μL/well of Microscint-20 was added, the top of the plates was sealed and readout was performed using the Topcount (Perkin Elmer). Kinase activity was calculated by subtracting counts per min (cpm) obtained in the presence of a positive control inhibitor (10 μM staurosporine) from cpm obtained in the presence of vehicle. The ability of a test compound to inhibit this activity was determined as:
as §1
Dose dilution series were prepared for the compounds enabling the testing of dose-response effects in the TYK2 assay and the calculation of the IC50 for each compound.

Work on `CCc1cc(CN(C)S(=O)(=O)C2CC2)ccc1N(C)c1cc2c(cn1)ncn2C` [Compound 292, Cyclopropanesulfonic acid {3-ethyl-4-[methyl-(1-methyl-1H-imidazo[4,5-c]pyridin-6-yl)-amino]-benzyl}-methyl-amide] yielded a pIC50 (human JAK1) of 7.00 to 11.00, a pIC50 (human JAK3) of 7.00 to 11.00 and a pIC50 (human TYK2) of 6.30 to 7.00.

`CCc1cc(-c2cccs2)ncc1N(C)c1cc2c(cn1)ncn2C` [Compound 289] gave a pIC50 (human JAK1) of 7.00 to 11.00, a pIC50 (human JAK3) of 7.00 to 11.00 and a pIC50 (human TYK2) of 7.00 to 11.00.

With `CCc1cc(C2CN(S(C)(=O)=O)C2)ccc1N(C)c1cc2c(cn1)ncn2C` [Compound 290, [2-Ethyl-4-(1-methanesulfonyl-azetidin-3-yl)-phenyl]-methyl-(1-methyl-1H-imidazo[4,5-c]pyridin-6-yl)-amine] the pIC50 (human JAK1) was 7.00 to 11.00, the pIC50 (human JAK3) was 7.00 to 11.00 and the pIC50 (human TYK2) was 7.00 to 11.00.

`CCc1cc(C(=O)NCC(C)(C)O)ccc1N(C)c1cc2c(cn1)ncn2C` [Compound 161, 3-ethyl-N-(2-hydroxy-2-methylpropyl)-4-(methyl(1-methyl-1H-imidazo[4,5-c]pyridin-6-yl)amino)benzamide] was tested, and the pIC50 (human JAK1) was 6.30 to 7.00, the pIC50 (human JAK3) was less than 6.00 and the pIC50 (human TYK2) was less than 6.00.

`CCc1cc(CNC2CCNC2)ccc1N(C)c1cc2c(cn1)ncn2C` (centres unmarked) [Compound 293, [2-Ethyl-4-(pyrrolidin-3-ylaminomethyl)-phenyl]-methyl-(1-methyl-1H-imidazo[4,5-d]pyridin-6-yl)-amine] was tested, and the pIC50 (human JAK1) was 7.00 to 11.00, the pIC50 (human JAK3) was less than 6.00 and the pIC50 (human TYK2) was less than 6.00.

For `CCc1cc(C(=O)NCC2CCCCN2C)ccc1N(C)c1cc2c(cn1)ncn2C` (centres unmarked) [Compound 165, 3-ethyl-4-(methyl(1-methyl-1H-imidazo[4,5-c]pyridin-6-yl)amino)-N-((1-methylpiperidin-2-yl)methyl)benzamide], the pIC50 (human JAK1) was 6.30 to 7.00, the pIC50 (human JAK3) was less than 6.00 and the pIC50 (human TYK2) was less than 6.00.

`CCc1cc(-c2ccc(C#N)cc2)ccc1N(C)c1cc2c(cn1)ncn2C` [Compound 162, 3′-ethyl-4′-(methyl(1-methyl-1H-imidazo[4,5-c]pyridin-6-yl)amino)biphenyl-4-carbonitrile] gave a pIC50 (human JAK1) of 7.00 to 11.00, a pIC50 (human JAK3) of 6.30 to 7.00 and a pIC50 (human TYK2) of 7.00 to 11.00.

With `COc1cc(-c2cccs2)ncc1N(C)c1cc2c(cn1)ncn2C` [Compound 264] the pIC50 (human JAK1) was 7.00 to 11.00, the pIC50 (human JAK3) was 6.30 to 7.00 and the pIC50 (human TYK2) was 7.00 to 11.00.

In the case of `CCc1cc(C(=O)NC2(C#N)CCN(C)CC2)ccc1N(C)c1cc2c(cn1)ncn2C` [Compound 166, N-(4-cyano-1-methylpiperidin-4-yl)-3-ethyl-4-(methyl(1-methyl-1H-imidazo[4,5-c]pyridin-6-yl)amino)benzamide], the pIC50 (human JAK1) was 7.00 to 11.00, the pIC50 (human JAK3) was less than 6.00 and the pIC50 (human TYK2) was less than 6.00.

In the case of `CCc1cc(CN(C)S(=O)(=O)CC)ccc1N(C)c1cc2c(cn1)ncn2C` [Compound 294, Ethanesulfonic acid {3-ethyl-4-[methyl-(1-methyl-1H-imidazo[4,5-c]pyridin-6-yl)-amino]-benzyl}-methyl-amide], the pIC50 (human JAK1) was 7.00 to 11.00, the pIC50 (human JAK3) was 7.00 to 11.00 and the pIC50 (human TYK2) was 7.00 to 11.00.

`CCc1ccccc1N(C)c1cc2c(cn1)ncn2C` [Compound 16, (2-Ethyl-phenyl)-methyl-(1-methyl-1H-imidazo[4,5-c]pyridin-6-yl)-amine] gave a pIC50 (human JAK3) of 6.00 to 6.30 and a pIC50 (human TYK2) of 6.30 to 7.00.

In the case of `CCc1cc(C(=O)NC2CN(C(=O)OC(C)(C)C)C2)ccc1N(C)c1cc2c(cn1)ncn2C` [Compound 170, tert-butyl 3-(3-ethyl-4-(methyl(1-methyl-1H-imidazo[4,5-c]pyridin-6-yl)amino)benzamido)azetidine-1-carboxylate], the pIC50 (human JAK1) was 6.00 to 6.30.

Work on `CCc1cc(C(=O)NC2COC2)ccc1N(C)c1cc2c(cn1)ncn2C` [Compound 171, 3-ethyl-4-(methyl(1-methyl-1H-imidazo[4,5-c]pyridin-6-yl)amino)-N-(oxetan-3-yl)benzamide] yielded a pIC50 (human JAK1) of 6.30 to 7.00.

`CCc1ccccc1N(CCC#N)c1cc2c(cn1)ncn2C` [Compound 285, 3-[(2-Ethyl-phenyl)-(1-methyl-1H-imidazo[4,5-c]pyridin-6-yl)-amino]-propionitrile] showed a pIC50 (human JAK1) of 6.30 to 7.00.

`CCc1ccccc1N(C)c1cc2c(cn1)ncn2CC` [Compound 297, 1-ethyl-N-(2-ethylphenyl)-N-methyl-1H-imidazo[4,5-c]pyridin-6-amine] gave a pIC50 (human JAK1) of 6.00 to 6.30.

`CCc1cc(C(=O)NC2CNC2)ccc1N(C)c1cc2c(cn1)ncn2C` [Compound 174, N-(azetidin-3-yl)-3-ethyl-4-(methyl(1-methyl-1H-imidazo[4,5-c]pyridin-6-yl)amino)benzamide] gave a pIC50 (human JAK1) of 6.30 to 7.00.

Compound `CCc1cc(CNCC(C)(C)O)ccc1N(C)c1cc2c(cn1)ncn2C` [Compound 169, 1-(3-ethyl-4-(methyl(1-methyl-1H-imidazo[4,5-c]pyridin-6-yl)amino)benzylamino)-2-methylpropan-2-ol] has a pIC50 (human JAK1) of 7.00 to 11.00.

`CC(NC(=O)OC(C)(C)C)c1ccc(N(C)c2cc3c(cn2)ncn3C)c(F)c1` (centres unmarked) [Compound 268, tert-Butyl (1-(3-fluoro-4-(methyl(1-methyl-1H-imidazo[4,5-c]pyridin-6-yl)amino)phenyl)ethyl)carbamate] gave a pIC50 (human JAK1) of less than 6.00.

`CCc1cc(C(=O)NC2CCCN(C)C2)ccc1N(C)c1cc2c(cn1)ncn2C` (centres unmarked) [Compound 152, 3-ethyl-4-(methyl(1-methyl-1H-imidazo[4,5-c]pyridin-6-yl)amino)-N-(1-methylpiperidin-3-yl)benzamide] showed a pIC50 (human JAK1) of 7.00 to 11.00.

In the case of `CCc1cc(-c2n[nH]c(C)n2)ccc1N(C)c1cc2c(cn1)ncn2C` [Compound 183, N-(2-ethyl-4-(5-methyl-1H-1,2,4-triazol-3-yl)phenyl)-N,1-dimethyl-1H-imidazo[4,5-c]pyridin-6-amine], the pIC50 (human JAK1) was 7.00 to 11.00.

For `CCOC(=O)c1ccc(N(CC)c2cc3c(cn2)ncn3C)cc1` [Compound 7, 4-[Ethyl-(1-methyl-1H-imidazo[4,5-c]pyridin-6-yl)-amino]-benzoic acid ethyl ester], the pIC50 (human JAK1) was less than 6.00.

`CCc1cc(-c2c(C)nn(C)c2C)ccc1N(C)c1cc2c(cn1)ncn2C` [Compound 138, N-(2-ethyl-4-(1,3,5-trimethyl-1H-pyrazol-4-yl)phenyl)-N,1-dimethyl-1H-imidazo[4,5-c]pyridin-6-amine] was tested, and the pIC50 (human JAK1) was 6.30 to 7.00.

`CCc1cc(CNC2CCS(=O)(=O)CC2)ccc1N(C)c1cc2c(cn1)ncn2C` [Compound 146, {4-[(1,1-Dioxo-hexahydrothiopyran-4-ylamino)-methyl]-2-ethyl-phenyl}-methyl-(1-methyl-1H-imidazo[4,5-c]pyridin-6-yl)-amine] was tested, and the pIC50 (human JAK1) was 7.00 to 11.00.
